Data on 10 compounds can be found in article PMC8023712, “Carboxylesterase Activities and Protein Expression in Rabbit and Pig Ocular Tissues” (Molecular Pharmaceutics, 2021).

The subject of data set [1] is esterases in rabbit cornea, iris–ciliary body and aqueous humor. Details: method as in PMID 16223870. The settings on record: 1000 μM; cited from earlier work.
Data set [2] has as its system CES2 (pig ocular tissue homogenates). The note with it: for FDA hydrolysis rate: 100 μM FDA.
Data set [3] relates to CES2 (rabbit ocular tissue homogenates). The note with it: for FDA hydrolysis rate: 100 μM FDA.
Another data set deals with most esterases. The settings on record: cited from earlier work.
Data set [4] relates to esterases in pig cornea homogenate (NPA hydrolysis). The data set can be described thus: Inhibition of NPA hydrolysis in pig cornea. Type of data set: biochemical. The note with it: 0.1 mM NPA; for IC50: for PMSF no unique IC50, concentration giving 50% inhibition, read-out: IC50 (this study), inhibition of NPA hydrolysis. As for the experimental part:
NPA hydrolysis was performed with a slight modification to our previous protocol[22] in clear flat-bottom 96-well Thermo Scientific Sterilin Microtiter plates at 37 °C. Diluted ocular samples (8 μg of protein in 80 μL of PBS) were pipetted into the reaction wells, and the background absorbance was measured at 405 nm for 10 min of preincubation. […] Changes in absorbance at 405 nm were recorded with a Victor^2 Microplate Reader (PerkinElmer Wallac 1420, St. Paul, MN) for 45 min with 90 s reading intervals. 4-Nitrophenol was used to generate a standard curve (5–400 μM).
(§1) Inhibitors were tested at a final concentration range of 0.4–400 μM except for PMSF (0.3–2.5 mM).
(§2) The differences among hydrolytic activities were analyzed by ANOVA using the SigmaPlot software (Sigma Plot 13.0, Systat Software Inc., San Jose, CA), followed by Mann–Whitney U test for statistical comparisons between species and between tissues. Between species, statistically significant differences are ranked by the asterisk signs (in the order of *, p < 0.05; **, p < 0.01, and *** p < 0.001). Between tissues of the same species, statistically significant differences in comparison to conjunctiva are represented by the dagger sign (†, p < 0.05). Nonlinear regression analysis to determine the Km, Vmax, and IC50 values were done using GraphPad Prism (GraphPad, 5.04 Software Inc., San Diego, CA). For IC50, logarithms of inhibitor concentrations were plotted against the relative response (0 μM inhibitor = 100%).

Data set [5] addresses CES1 (DME hydrolysis in pig cornea and conjunctiva) (Sus scrofa, UniProt F1RF16). The data set can be described thus: Inhibition of DME hydrolysis in pig cornea and conjunctiva. The settings on record: 5 μM DME, at 200 μM inhibitor, read-out: Extent of inhibition of DME hydrolysis. Type of data set: biochemical. As for the experimental part:
(§3) The hydrolysis of DME was monitored with slight modifications using the published bioluminescence-based assay[13],[21] where recombinant firefly luciferase enzyme was used to detect the D-luciferin that formed in the reaction mixture. The DME hydrolysis reaction was done in white-coated 96-well plates (Thermo Scientific Sterilin Microtiter Plates). Tissue lysates (5 μg of protein) were preincubated in 0.1 M PBS, pH 6.5. The reaction was initiated by adding DME to a final concentration of 5 μM in a final volume of 200 μL. The hydrolysis of DME was allowed to proceed for 20 min at 37 °C. The formed D-luciferin was quantitated by an injection of 73 μL of the luciferase detection reagent [3 μg of rLuciferase, 50 nmol of ATP, and 50 nmol of MgCl2 in PBS], and the luminescence was measured immediately with a Victor^2 Microplate Reader (560 nm, 1 s). Serial 2-fold dilutions of D-luciferin in 0.1 M PBS, pH 6.5 were used to generate the standard curve (0.156–10 μM).
as §1
(§4) The differences among hydrolytic activities were analyzed by ANOVA using the SigmaPlot software (Sigma Plot 13.0, Systat Software Inc., San Jose, CA), followed by Mann–Whitney U test for statistical comparisons between species and between tissues. […]

The subject of data set [6] is CES1 (DME hydrolysis in rabbit cornea and conjunctiva). Put plainly: Inhibition of DME hydrolysis in rabbit cornea and conjunctiva. Type of data set: biochemical. The settings on record: 5 μM DME, at 200 μM inhibitor. How it is done: as §3, §1, §4
The target in the next data set is CES2 > CES1 (HLM). Details: method as in PMID 23648675, PMID 32955894. The note with it: read-out: Ki (literature); cited from earlier work.
For data set [7], the system named is AADAC (pig ocular tissue homogenates). The data set can be described thus: Phenacetin hydrolysis to p-phenetidine in pig ocular tissues. Type of data set: in vitro ADME. The settings on record: 4 mM phenacetin, below detection limit. As for the experimental part:
(§5) Phenacetin, a specific substrate for human AADAC,[18],[19],[24] was incubated with ocular tissue homogenates. The substrate (4 mM, final concentration) was preincubated in the 0.1 M Tris-HCl, pH 7.4, buffer at 37 °C for 5 min, after which the tissue samples (20 μg of protein) were added to start the reaction in the total reaction volume of 200 μL. All the reaction and control samples were incubated for 50 min at 37 °C with shaking. The reaction was terminated by adding 200 μL of ice-cold ACN containing acetaminophen at an 1 μM final concentration as the internal standard, followed by centrifugation at 4 °C for 10 min at 10 000g. A standard curve using the metabolite p-phenetidine (0.1–100 μM)[24] was established. The protein amount and incubation time were optimized from earlier pilot experiments for both procaine and phenacetin hydrolysis reactions. All incubations were performed in triplicate including the controls (control with no sample, control with no substrate), and the data are expressed as mean ± SD.
(§6) The metabolites from the above CES2 and AADAC assays were analyzed using a Waters (Milford, MA) Acquity ultra-performance liquid chromatographic (UPLC) coupled with a Q-Exactive Focus Orbitrap MS (Thermo Scientific). […]

Data set [8] relates to AADAC (rabbit ocular tissue homogenates). Put plainly: Phenacetin hydrolysis to p-phenetidine in rabbit ocular tissues. The note with it: 4 mM phenacetin, below detection limit. Type of data set: in vitro ADME. How it is done:
as §5, §6

Data set [9] concerns CES2 (pig ocular tissue homogenates). Put plainly: Procaine hydrolysis to PABA in pig ocular tissues. The settings on record: 100 μM procaine. Type of data set: in vitro ADME. How it is done:
(§7) Procaine, a known human CES2 substrate,[2],[17],[50] was incubated with rabbit and pig ocular tissues. After preincubation of the substrate (100 μM procaine in 0.1 M Tris-HCl, pH 7.4) at 37 °C, the reaction was initiated with tissue samples (20 μg of protein) in a total reaction volume of 200 μL. All the samples in parallel with the controls (no substrate or no enzyme) were incubated for 50 min at 37 °C on a shaker incubator (Heidolph Titramax 1000 platform shaker, Berlin Germany). The reaction was terminated by adding 200 μL of ice-cold ACN containing the internal standard procainamide (1 μM final concentration), followed by centrifugation at 4 °C for 10 min at 10 000g. Supernatants were collected for HPLC analysis. The standard curve was established using the hydrolysis product PABA with the concentration range 0.1–1000 nM.[51]
(§8) The metabolites from the above CES2 and AADAC assays were analyzed using a Waters (Milford, MA) Acquity ultra-performance liquid chromatographic (UPLC) coupled with a Q-Exactive Focus Orbitrap MS (Thermo Scientific). A Waters HSS T3 column (2.1 mm × 100 mm, 1.8 μm particle size) was used with elution gradients A (0.1% formic acid) and B (methanol) [0–0.5 min, 1% B; 0.5–4 min, 1%–20% B; 4–4.5 min, 20%–98% B; 4.5–5 min, 98% B; and 5–6 min, 98%–1% B]. The injection volume was 2 μL with a flow rate of 0.5 mL/min and a column temperature of 40 °C. […]

Data set [10] deals with CES2 (rabbit ocular tissue homogenates). Put plainly: Procaine hydrolysis to PABA in rabbit ocular tissues. Type of data set: in vitro ADME. The settings on record: 100 μM procaine. As for the experimental part: as §7, §8
Data set [11] deals with CES2 (FDA hydrolysis in pig retina). The data set can be described thus: Inhibition of FDA hydrolysis in pig retina. Type of data set: biochemical. The note with it: 10 μM FDA. How it is done:
Diluted samples (5 μg of protein) were incubated at 37 °C in black 96-well Thermo Scientific Nunc F96 MicroWell plates. […] The fluorescein stock solution was used to generate a standard curve (0.156–10 μM) using 2-fold serial dilutions in 0.1 M PBS, pH 7.4.
as §1, §2

The next data set has as its system rhCES2. The note with it: cited from earlier work.

Several values for one entry are separate records, joined by “and”; a condition that tells them apart may be missing. Identical values can stand only once. Like-named read-outs stand apart in the source and are kept apart here. Some results are limits rather than exact numbers.

Chain of CES1 (DME hydrolysis in pig cornea and conjunctiva) (F1RF16 19-530): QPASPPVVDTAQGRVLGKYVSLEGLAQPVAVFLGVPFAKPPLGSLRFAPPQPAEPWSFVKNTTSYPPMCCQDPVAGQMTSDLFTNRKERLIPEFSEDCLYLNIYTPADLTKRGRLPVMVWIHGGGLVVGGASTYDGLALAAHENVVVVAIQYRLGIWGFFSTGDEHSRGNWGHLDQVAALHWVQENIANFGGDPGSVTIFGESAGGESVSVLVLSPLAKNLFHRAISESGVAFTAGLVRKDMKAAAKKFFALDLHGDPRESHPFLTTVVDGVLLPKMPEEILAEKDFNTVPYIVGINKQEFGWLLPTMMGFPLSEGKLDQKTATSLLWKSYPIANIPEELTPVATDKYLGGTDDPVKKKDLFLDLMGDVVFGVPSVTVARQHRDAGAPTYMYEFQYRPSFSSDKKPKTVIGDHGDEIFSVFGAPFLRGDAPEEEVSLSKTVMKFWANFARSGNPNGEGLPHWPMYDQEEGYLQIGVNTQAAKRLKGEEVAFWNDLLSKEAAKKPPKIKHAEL

With `O=C(O)CN(CCN(CC(=O)O)CC(=O)O)CC(=O)O` [EDTA], in data set [1], the “Inhibition of naphthyl acetate hydrolysis” value is listed as 10%–30%.

As to `CC(=O)Oc1ccc2c(c1)Oc1cc(OC(C)=O)ccc1C21OC(=O)c2ccccc21` [FDA, fluorescein diacetate], the FDA hydrolysis rate is below 0.1 nmol/min/mg in [2] (most pig ocular tissues (except retina)); 0.6 ± 0.1 nmol/min/mg in data set [2] (pig retina); 0.1 to 0.2 nmol/min/mg in data set [3] (rabbit RPE, aqueous humor and vitreous); above 1.0 nmol/min/mg in data set [3] (rabbit choroid, cornea and conjunctiva); 0.5 to 1 nmol/min/mg in data set [3] (rabbit retina). Also, the Km in [2] (read-out: Km (this study), FDA hydrolysis in pig retina) amounted to 16 ± 1.6 µM; in [3] (read-out: Km (this study), FDA hydrolysis in rabbit cornea) it was 5.5 ± 0.4 µM.

In the case of `O=S(=O)(F)Cc1ccccc1` [PMSF, phenylmethylsulfonyl fluoride], the half-inhibitory concentration (IC50) in the data set with most esterases (most esterases, read-out: IC50 (literature)) is 541 µM; with most esterases (other tissues, read-out: reported IC50 value in other tissues), around 500 µM; in data set [4] it was 200 µM and ~200 µM. For the same compound, the Ki on most esterases (most esterases, read-out: Ki (literature)) is 560 µM.

In the case of `C[C@@H]1CC[C@@]2(OC1)O[C@H]1[C@@H](O)[C@H]3[C@@H]4CC[C@H]5C[C@@H](O[C@@H]6O[C@H](CO)[C@H](O[C@@H]7O[C@H](CO)[C@@H](O)[C@H](O[C@@H]8OC[C@@H](O)[C@H](O)[C@H]8O)[C@H]7O[C@@H]7O[C@H](CO)[C@H](O)[C@H](O[C@@H]8O[C@H](CO)[C@@H](O)[C@H](O)[C@H]8O)[C@H]7O)[C@H](O)[C@H]6O)[C@H](O)C[C@]5(C)[C@H]4CC[C@]3(C)[C@H]1[C@@H]2C` [digitonin], the inhibition at 200 µM in data set [5] worked out at 15%. In data set [6], the “Extent of inhibition of DME hydrolysis” value was 30%. Also, in data set [4], the IC50 came to 38 µM. In [4] (highest inhibitor concentration 400 μM (PMSF 2.5 mM)), the “Extent of inhibition of NPA hydrolysis (maximal)” value is recorded as around 40%.

`COc1ccc([C@@H]2Sc3ccccc3N(CCN(C)C)C(=O)[C@@H]2OC(C)=O)cc1` [diltiazem]: on CES2 > CES1 (HLM), the Ki was 2.89 ± 0.39 µM.

For `O=C(O)c1cc[c]([Hg][Cl])cc1` [p-chloromercuribenzoate], the “Inhibition of naphthyl acetate hydrolysis” value in data set [1] is recorded as 10%–30%.

On to `CCOc1ccc(NC(C)=O)cc1` [phenacetin], for which the “Phenacetin hydrolysis rate (p-phenetidine formation)” value in data set [7] is reported as “undetectable”; in [7] (listed as Phenacetin), below 0.1 pmol/min/mg; in data set [8] it was “undetectable”; in [8] (listed as Phenacetin), below 0.1 pmol/min/mg.

Consider `CCN(CC)CCOC(=O)c1ccc(N)cc1` [procaine], for which the “Procaine hydrolysis rate (PABA formation)” value in [9] (pig aqueous humor (lowest)) was 0.02 nmol/min/mg; in data set [9] (pig retina (highest)), 0.09 nmol/min/mg; in data set [10] (rabbit aqueous humor and conjunctiva) it was 0.04 to 0.1 nmol/min/mg; in data set [10] (rabbit cornea, vitreous, RPE and choroid) it was 0.2 to 0.3 nmol/min/mg.

For the compound `CC(C)(C)NC[C@H](O)COc1nsnc1N1CCOCC1` [timolol], the “Extent of inhibition of FDA hydrolysis” value in [11] was “no inhibition”. Besides, the “inhibition (literature, printed in IC50 column)” value in the data set on rhCES2 (main human enzyme CES2, at 200 μM) is reported as 20% inhibition at 200 μM.

As for `COc1ccc(CCN(C)CCCC(C#N)(c2ccc(OC)c(OC)c2)C(C)C)cc1OC` (centres unmarked) [verapamil], the “Extent of inhibition of FDA hydrolysis” value in data set [11] is “no inhibition”. In addition, in the data set with rhCES2 (rhCES2, read-out: IC50 (literature)), the IC50 was 7.94 µM. For the same compound, the Ki at rhCES2 (rhCES2, read-out: Ki (literature)) was 3.84 ± 0.99 µM; at CES2 > CES1 (HLM) it was 11.5 ± 1.2 µM.

Broadly, the Km is the substrate concentration at which the rate is half of its maximum. By IC50 is commonly meant the concentration at which inhibition is half-maximal. Broadly, the Ki is a dissociation constant, usually derived from enzyme kinetics or from competition with a known ligand. A word on the inhibition: it is the share of the control response that was lost under treatment.
